Converted amounts (≈) assume the structure as drawn. The source made the active and inactive calls. No cut-off for these calls is given here.
Assays:
[1] = Antiinflammatory activity in mouse splenocytes assessed as inhibition of LPS-induced IL-6 production at 12 uM preincubated for 2 hrs prior to LPS challenge by sandwich ELISA; type: functional; conditions: Splenocyte
[2] = target: T1, Cytochrome P450 3A4 (Homo sapiens, UniProt P08684)
Description: Inhibition of human recombinant CYP3A4 using DEF as substrate preincubated for 5 to 10 mins before substrate addition

[3] = Cytotoxicity against human THP1 cells assessed as cell viability at 50 uM after 24 hrs by MTT assay; type: cell-based, THP-1; conditions: read-out: Activity
[4] = target: T1, Cytochrome P450 3A4; remark: listed apart in the source
Description: Inhibition of human recombinant CYP3A4 using 7-BQ as substrate preincubated for 5 to 10 mins before substrate addition

[5] = Antiinflammatory activity in mouse splenocytes assessed as inhibition of LPS-induced IL-6 production at 50 uM preincubated for 2 hrs prior to LPS challenge by sandwich ELISA; type: functional; conditions: Splenocyte
[6] = tested on: Streptococcus pyogenes; test: Antibacterial activity against Streptococcus pyogenes ATCC 700294 by CLSI broth microdilution method; type: functional
[7] = Antiinflammatory activity in mouse splenocytes assessed as inhibition of LPS-induced IL-6 production in mouse splenocytes at 25 uM preincubated for 2 hrs prior to LPS challenge by sandwich ELISA; type: functional; conditions: Splenocyte
[8] = tested on: Moraxella catarrhalis; test: Antibacterial activity against Moraxella catarrhalis ATCC 23246 by CLSI broth microdilution method; type: functional
[9] = tested on: Staphylococcus aureus; test: Antibacterial activity against Staphylococcus aureus ATCC 13709 by CLSI broth microdilution method; type: functional
[10] = tested on: Haemophilus influenzae; test: Antibacterial activity against Haemophilus influenzae ATCC 49247 by CLSI broth microdilution method; type: functional
[11] = tested on: Mus musculus; test: Antiinflammatory activity in BALB/cJ mouse assessed as decrease in LPS-induced total cell number in bronchoalveolar lavage fluid at 200 mg/kg, ip administered 2 hrs prior to LPS challenge measured after 24 hrs post LPS challenge; type: functional, organism-based; design: dose 200 mg/kg; conditions: Lung
[12] = Cmax in lung cancer patient serum at 2 gram, po qd; type: ADME, organism-based; design: route oral; conditions: human
[13] = tested on: Mus musculus; test: Antiinflammatory activity in BALB/cJ mouse assessed as decrease in LPS-induced neutrophil number in bronchoalveolar lavage fluid at 200 mg/kg, ip administered 2 hrs prior to LPS challenge measured after 24 hrs post LPS challenge; type: functional, organism-based; design: dose 200 mg/kg; conditions: Lung
[14] = target: Transcription factor Jun (Mus musculus) (UniProt P05627); test: Inhibition of AP1-mediated mediated IL-1beta production in LPS-induced mouse pulmonary neutrophila model
[15] = Cmax in cystic fibrosis patient blood at 500 mg; type: ADME, organism-based; design: dose 500 mg; conditions: human, whole blood
[16] = Cmax in lung cancer patient epithelial lining fluid at 2 gram, po qd; type: ADME, organism-based; design: route oral; conditions: human
[17] = tested on: Streptococcus pneumoniae; test: Antibacterial activity against Streptococcus pneumoniae ATCC 49619 by CLSI broth microdilution method; type: functional
[18] = Cmax in cystic fibrosis patient plasma at 500 mg; type: ADME, organism-based; design: dose 500 mg; conditions: human

T1 sequence (P08684 whole entry): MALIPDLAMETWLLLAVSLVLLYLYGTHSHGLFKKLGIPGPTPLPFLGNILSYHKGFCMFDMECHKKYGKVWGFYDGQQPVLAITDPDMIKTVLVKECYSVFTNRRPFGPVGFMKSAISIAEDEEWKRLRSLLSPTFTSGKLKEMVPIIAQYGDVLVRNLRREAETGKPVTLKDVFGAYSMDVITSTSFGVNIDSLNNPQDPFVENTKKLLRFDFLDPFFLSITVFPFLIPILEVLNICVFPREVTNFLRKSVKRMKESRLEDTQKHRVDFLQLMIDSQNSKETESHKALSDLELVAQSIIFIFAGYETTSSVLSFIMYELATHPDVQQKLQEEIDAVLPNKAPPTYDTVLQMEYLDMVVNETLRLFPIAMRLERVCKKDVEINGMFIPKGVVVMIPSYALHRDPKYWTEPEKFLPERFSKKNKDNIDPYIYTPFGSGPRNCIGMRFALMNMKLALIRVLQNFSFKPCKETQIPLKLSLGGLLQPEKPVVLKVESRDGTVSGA
Chain of Transcription factor Jun (Mus musculus) (P05627 whole entry): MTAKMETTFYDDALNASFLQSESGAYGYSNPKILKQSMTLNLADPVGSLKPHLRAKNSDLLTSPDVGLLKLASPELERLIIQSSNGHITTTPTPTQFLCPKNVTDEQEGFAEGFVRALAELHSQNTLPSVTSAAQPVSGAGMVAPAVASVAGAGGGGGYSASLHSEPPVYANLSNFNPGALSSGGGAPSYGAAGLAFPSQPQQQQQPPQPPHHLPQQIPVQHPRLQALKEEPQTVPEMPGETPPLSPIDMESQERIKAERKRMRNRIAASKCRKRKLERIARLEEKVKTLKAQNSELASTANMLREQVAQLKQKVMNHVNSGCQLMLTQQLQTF

IC50 [2] [nM]	IC50 [4] [nM]	MIC [6] [µg/mL]	SMILES	inhibition at 12 µM [1] [%]	viability at 24 h, 50 µM [3] [%]	inhibition at 50 µM [5] [%]	inhibition at 25 µM [7] [%]	also measured
500	5700	> 64	CC/N=C1\O[C@H]2[C@H](O[C@@H]3[C@@H](C)[C@H](O[C@H]4C[C@@](C)(OC)[C@@H](O)[C@H](C)O4)[C@@H](C)C(=O)O[C@H](CC)[C@@](C)(O)[C@H](O)[C@@H](C)C(=O)[C@H](C)C[C@@]3(C)O)O[C@H](C)C[C@@H]2N1C	70	0	86	80	–
1330	> 10000	> 64	CC[C@H]1OC(=O)[C@H](C)[C@@H](O[C@H]2C[C@@](C)(OC)[C@@H](O)[C@H](C)O2)[C@H](C)[C@@H](O[C@@H]2O[C@H](C)C[C@H]3[C@H]2O/C(=N\CCCSC)N3C)[C@](C)(OC)C[C@@H](C)C(=O)N[C@H](C)[C@@H](O)[C@]1(C)O	36	0	67	48	–
1000	> 10000	> 64	CC[C@H]1OC(=O)[C@H](C)[C@@H](O[C@H]2C[C@@](C)(OC)[C@@H](O)[C@H](C)O2)[C@H](C)[C@@H](O[C@@H]2O[C@H](C)C[C@H]3[C@H]2O/C(=N\C(C)C)N3C)[C@](C)(OC)C[C@@H](C)NC(=O)[C@H](C)[C@@H](O)[C@]1(C)O	45	0	67	55	–
7900	> 10000	> 64	CC/N=C1\O[C@H]2[C@H](O[C@@H]3[C@@H](C)[C@H](O[C@H]4C[C@@](C)(OC)[C@@H](O)[C@H](C)O4)[C@@H](C)C(=O)O[C@H](CC)[C@@](C)(O)[C@H](O)[C@@H](C)N(C)C[C@H](C)C[C@@]3(C)O)O[C@H](C)C[C@@H]2N1C	86	0	99	96	Activity [11]: Active; Activity [13]: Active
–	–	> 64	CC[C@H]1OC(=O)[C@H](C)[C@@H](O[C@H]2C[C@@](C)(OC)[C@@H](O)[C@H](C)O2)[C@H](C)[C@@H](O[C@@H]2O[C@H](C)C[C@H]3[C@H]2O/C(=N\C(C)C)N3C)[C@](C)(O)C[C@@H](C)C(=O)[C@H](C)[C@@H](O)[C@]1(C)O	61	0	94	81	–
700	8000	> 64	CC[C@H]1OC(=O)[C@H](C)[C@@H](O[C@H]2C[C@@](C)(OC)[C@@H](O)[C@H](C)O2)[C@H](C)[C@@H](O[C@@H]2O[C@H](C)C[C@H]3[C@H]2O/C(=N\CCCN(C)C)N3C)[C@](C)(OC)C[C@@H](C)C(=O)[C@H](C)[C@@H](O)[C@]1(C)O	55	0	74	62	–
–	2900	> 64	CC/N=C1\O[C@H]2[C@H](O[C@@H]3[C@@H](C)[C@H](O[C@H]4C[C@@](C)(OC)[C@@H](O)[C@H](C)O4)[C@@H](C)C(=O)O[C@H](CC)[C@@](C)(O)[C@H](O)[C@@H](C)C(=O)[C@H](C)C[C@@]3(C)OC)O[C@H](C)C[C@@H]2N1C	55	0	73	64	–
–	–	> 64	CC[C@H]1OC(=O)[C@H](C)[C@@H](O[C@H]2C[C@@](C)(OC)[C@@H](O)[C@H](C)O2)[C@H](C)[C@@H](O[C@@H]2O[C@H](C)C[C@H]3[C@H]2O/C(=N\C(C)(C)C)N3C)[C@](C)(OC)C[C@@H](C)C(=O)N[C@H](C)[C@@H](O)[C@]1(C)O	52	0	86	62	–

Second part, the compound before the results:

SMILES	IC50 [2] [nM]	IC50 [4] [nM]	MIC [6] [µg/mL]	inhibition at 12 µM [1] [%]	viability at 24 h, 50 µM [3] [%]	inhibition at 50 µM [5] [%]	inhibition at 25 µM [7] [%]	also measured
CC/N=C1/O[C@H]2[C@H](O[C@@H]3[C@@H](C)[C@H](O[C@H]4C[C@@](C)(OC)[C@@H](O)[C@H](C)O4)[C@@H](C)C(=O)O[C@H](CC)[C@]4(C)C=C(C)/C(=C(/C)C[C@]3(C)OC)O4)O[C@H](C)C[C@@H]2N1C	–	–	–	–	–	–	–	MIC [8]: 8 µg/mL (≈ 10.7 µM)
CC[C@H]1OC(=O)[C@H](C)[C@@H](O[C@H]2C[C@@](C)(OC)[C@@H](O)[C@H](C)O2)[C@H](C)[C@@H](O[C@@H]2O[C@H](C)C[C@H]3[C@H]2O/C(=N/Cc2ccccc2)N3C)[C@@](C)(OC)C/C(C)=C2/O[C@@]1(C)C=C2C	–	–	–	–	–	–	–	MIC [9]: 8 µg/mL (≈ 9.84 µM)
CC[C@H]1OC(=O)[C@H](C)[C@@H](O[C@H]2C[C@@](C)(OC)[C@@H](O)[C@H](C)O2)[C@H](C)[C@@H](O[C@@H]2O[C@H](C)C[C@H]3[C@H]2O/C(=N/C(C)C)N3C)[C@@](C)(OC)C/C(C)=C2/O[C@@]1(C)C=C2C	–	–	–	–	–	–	–	MIC [8]: 8 µg/mL (≈ 10.5 µM)
CC[C@H]1OC(=O)[C@H](C)[C@@H](O[C@H]2C[C@@](C)(OC)[C@@H](O)[C@H](C)O2)[C@H](C)[C@@H](O[C@@H]2O[C@H](C)C[C@H](N(C)C)[C@H]2O)[C@](C)(O)C[C@@H](C)CN(C)[C@H](C)[C@@H](O)[C@]1(C)O [AZITHROMYCIN]	–	–	< 0.125	61	0	84	74	MIC [10]: 2 µg/mL (≈ 2.67 µM); MIC [9]: 0.5 µg/mL (≈ 0.668 µM); Activity [11]: Active; Cmax [12]: 940 ng/mL; Activity [13]: Active; inhibition [14]: Active; Cmax [15]: 2010 ng/mL; MIC [8]: < 0.125 µg/mL; Cmax [16]: 3200 ng/mL; MIC [17]: < 0.125 µg/mL; Cmax [18]: 670 ng/mL
CC[C@H]1OC(=O)[C@H](C)[C@@H](O[C@H]2C[C@@](C)(OC)[C@@H](O)[C@H](C)O2)[C@H](C)[C@@H](O[C@@H]2O[C@H](C)C[C@H]3[C@H]2O/C(=N/c2ccc(OC)cc2)N3C)[C@](C)(OC)C[C@@H](C)C(=O)N[C@H](C)[C@@H](O)[C@]1(C)O	700	4700	> 64	39	6	71	44	–
CC[C@H]1OC(=O)[C@H](C)[C@@H](O[C@H]2C[C@@](C)(OC)[C@@H](O)[C@H](C)O2)[C@H](C)[C@@H](O[C@@H]2O[C@H](C)C[C@H]3[C@H]2O/C(=N/Cc2ccccc2)N3C)[C@](C)(O)C[C@@H](C)CN(C)[C@H](C)[C@@H](O)[C@]1(C)O	–	–	–	–	–	–	–	MIC [17]: 1 µg/mL (≈ 1.18 µM)
CC[C@H]1OC(=O)[C@H](C)[C@@H](O[C@H]2C[C@@](C)(OC)[C@@H](O)[C@H](C)O2)[C@H](C)[C@@H](O[C@@H]2O[C@H](C)C[C@H]3[C@H]2O/C(=N/Cc2ccccc2)N3C)[C@](C)(OC)C[C@@H](C)NC(=O)[C@H](C)[C@@H](O)[C@]1(C)O	–	–	–	–	–	–	–	MIC [17]: 1 µg/mL (≈ 1.16 µM)
CC/N=C1/O[C@H]2[C@H](O[C@@H]3[C@@H](C)[C@H](O[C@H]4C[C@@](C)(OC)[C@@H](O)[C@H](C)O4)[C@@H](C)C(=O)O[C@H](CC)[C@@]4(C)OC5(O[C@@]3(C)C[C@H]5C)[C@H](C)[C@@H]4C)O[C@H](C)C[C@@H]2N1C	–	–	–	–	–	–	–	Activity [10]: Active; Activity [9]: Active; Activity [6]: Active; Activity [8]: Active; Activity [17]: Active
CC[C@H]1OC(=O)[C@H](C)[C@@H](O[C@H]2C[C@@](C)(OC)[C@@H](O)[C@H](C)O2)[C@H](C)[C@@H](O[C@@H]2O[C@H](C)C[C@H]3[C@H]2O/C(=N/c2cccc4ccccc24)N3C)[C@](C)(O)C[C@@H](C)CN(C)[C@H](C)[C@@H](O)[C@]1(C)O	–	–	–	–	–	–	–	MIC [17]: 1 µg/mL (≈ 1.13 µM)
CC[C@H]1OC(=O)[C@H](C)[C@@H](O[C@H]2C[C@@](C)(OC)[C@@H](O)[C@H](C)O2)[C@H](C)[C@@H](O[C@@H]2O[C@H](C)C[C@H]3[C@H]2O/C(=N/C(C)C)N3C)[C@](C)(OC)C[C@@H](C)N(C)C[C@H](C)[C@@H](O)[C@]1(C)O	–	–	–	–	–	–	–	MIC [17]: 1 µg/mL (≈ 1.23 µM)

Source: ChEMBL document CHEMBL2157869, “N'-substituted-2'-O,3'-N-carbonimidoyl bridged macrolides: novel anti-inflammatory macrolides without antimicrobial activity” (J Med Chem, 2012)
